Laboratory results: ChEMBL document CHEMBL4261608, “Design, synthesis and anti-mycobacterial activity evaluation of benzofuran-isatin hybrids” (Eur J Med Chem, 2018)

Test system: Mycobacterium tuberculosis
Assay: Antimycobacterial activity against ethambutol/isoniazid/rifampicin-resistant Mycobacterium tuberculosis incubated for 7 days by rapid direct susceptibility test
Assay type: functional
Conditions: 168 h

NNC(=O)c1ccncc1 [ISONIAZID]
MIC: > 128 µg/mL
